We go through 1 substance from paper PMC4209162, “Specific aromatic foldamers potently inhibit spontaneous and seeded Aβ42 and Aβ43 fibril assembly” (Biochemical Journal, 2014).

Entries after “also recorded” stand apart in the source; their conditions may differ.

In one assay the target is T1, FUS (Homo sapiens, UniProt P35637).
T1 sequence (P35637 1-526): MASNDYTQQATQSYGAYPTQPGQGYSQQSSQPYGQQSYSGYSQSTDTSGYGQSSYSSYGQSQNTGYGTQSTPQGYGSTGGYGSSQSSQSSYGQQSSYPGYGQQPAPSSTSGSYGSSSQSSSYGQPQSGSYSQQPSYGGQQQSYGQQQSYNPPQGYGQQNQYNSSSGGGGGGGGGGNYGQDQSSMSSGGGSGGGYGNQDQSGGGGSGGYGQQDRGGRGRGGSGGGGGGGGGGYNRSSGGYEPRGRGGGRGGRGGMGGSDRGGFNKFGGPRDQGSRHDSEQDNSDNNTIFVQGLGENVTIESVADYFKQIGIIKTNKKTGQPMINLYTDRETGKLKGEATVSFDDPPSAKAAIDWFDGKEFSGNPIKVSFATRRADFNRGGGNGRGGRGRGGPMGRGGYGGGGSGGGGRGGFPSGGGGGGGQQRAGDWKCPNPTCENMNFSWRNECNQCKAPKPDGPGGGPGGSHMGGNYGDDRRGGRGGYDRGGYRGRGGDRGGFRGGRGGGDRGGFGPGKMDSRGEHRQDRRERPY
Put plainly: FUS aggregation (turbidity, absorbance at 395 nm). The class given is biochemical. To be noted: GST-FUS 5 μM, foldamer 20 μM, plus TEV protease, 25°C, 0–90 min. On the procedure: GST–TEV–FUS was purified as described. Aggregation was initiated by addition of tobbaco etch virus (TEV) protease to GST–TEV–FUS (5 μM) plus or minus foldamer (20 μM) in assembly buffer (50 mM Tris/HCl pH 8, 0.2 M trehalose and 20 mM glutathione). Aggregation was for 0–90 min at 25°C without agitation in a 96-well plate and was assessed by turbidity (absorbance at 395 nm) using a Tecan Infinite M1000 plate reader. No aggregation occurred unless TEV protease was added to separate GST from FUS [58].

For assay [1], the system named is SH-SY5Y human neuroblastoma cells. Briefly: Toxicity of Aβ42 conformers to SH-SY5Y cells (MTT reduction, LDH release). The class given is cell-based. The note with it: 24 h, MTT and LDH. On the procedure: (§1) SH-SY5Y human neuroblastoma cells were maintained in Dulbecco's modified Eagle's medium (DMEM) plus 10 mM Hepes, 10% FBS, 4 mM glutamine, penicillin (200 units/ml) and streptomycin (200 μg/ml) in 5% CO2 at 37°C. Cells were differentiated in serum-free DMEM with N2 supplement and 10 μM all-trans-retinoic acid before use. Cells were plated at (10000 cells/well) in 96-well plates and grown overnight. Medium was removed and Aβ conformers or controls were added and cells were incubated for 24 h at 37°C. Toxicity was assessed using an MTT kit (Tox-1; Sigma) or via lactate dehydrogenase (LDH) release using the CytoTox-ONE™ kit (Promega). Toxicity values were normalized to the buffer control without Aβ.
A general note: Tetrazolium dyes change colour on reduction, which living cells bring about.

Assay [2] deals with T2, Aβ43 (Homo sapiens, UniProt P05067). Briefly: Seeded Aβ43 fibrillization (ThT fluorescence, EM). It counts as biochemical.
In assay [3] the target is T3, Aβ42 (Homo sapiens, UniProt P05067). Briefly: Seeded Aβ42 fibrillization (ThT fluorescence, EM). The class given is biochemical.
Assay [4] deals with T3, Aβ42. Put plainly: Spontaneous Aβ42 fibrillization (ThT fluorescence, EM). It counts as biochemical. The note with it: 25°C.
Assay [5] has as its target T2, Aβ43. Put plainly: Spontaneous Aβ43 fibrillization (ThT fluorescence, EM). The class given is biochemical. The note with it: Aβ43 5 μM.
The next assay concerns the target Aβ42 fibrils (Homo sapiens, UniProt P05067). Put plainly: Disassembly of preformed Aβ42 fibrils. It counts as biochemical. The note with it: foldamer in 4-fold molar excess, 24 h (results not shown).
The target of another assay is Aβ42 oligomers (Homo sapiens, UniProt P05067). Briefly: A11-reactive Aβ42 conformers (ELISA). To be noted: Aβ42 5 μM, foldamer 20 μM, 25°C. The class given is biochemical. A general note: ELISA stands for enzyme-linked immunosorbent assay.
For assay [6], the system named is SH-SY5Y human neuroblastoma cells. Briefly: Toxicity of Aβ43 conformers to SH-SY5Y cells (MTT reduction, LDH release). To be noted: 24 h, MTT and LDH. It counts as cell-based. How it is done:
as §1

For a further assay, the target named is Aβ43 oligomers (Homo sapiens, UniProt P05067). Put plainly: A11-reactive Aβ43 conformers (ELISA). The note with it: Aβ43 5 μM, foldamer 20 μM, 25°C. The class given is biochemical.
The mark [7] stands for this setting: 4 h (endpoint of fibrillization).

T2 sequence (P05067 672-714 limits assumed): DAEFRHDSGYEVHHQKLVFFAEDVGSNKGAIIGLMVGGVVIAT
T3 sequence (P05067 672-713 limits assumed): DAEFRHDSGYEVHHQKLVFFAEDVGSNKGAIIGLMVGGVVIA
Aβ43 oligomers, sequence (P05067 672-714 limits assumed): as the sequence (P05067 672-714 limits assumed) above
Aβ42 oligomers, sequence (P05067 672-713 limits assumed): as the sequence (P05067 672-713 limits assumed) above
Aβ42 fibrils, sequence (P05067 672-713 limits assumed): as above

As to Sal-(Lys-Sal)3-CONH2, the “Inhibition of FUS aggregation” value on FUS is recorded as “delayed FUS aggregation”. In addition, the “Effect on toxicity of Aβ42 conformers after 0.5 h of assembly” value in [1] (Aβ42 5 μM assembled with foldamer 20 μM for 0.5 h) is reported as “had no effect”. Moreover, the “Effect on toxicity of Aβ42 conformers after 4 h of assembly” value in assay [1] (Aβ42 5 μM assembled with foldamer 20 μM for 4 h) is on record as “enhanced”. Moreover, at Aβ43 [2] (Aβ43 5 μM plus seed 0.1 μM monomer, foldamer 5, 10 or 20 μM, 0–2 h, 25°C, ThT, EM), the “Inhibition of seeded Aβ43 fibrillization” value is “did not inhibit seeded Aβ43 fibrillization”. At Aβ43 [2] (Aβ43 5 μM plus seed, compared with Aβ43 alone), the “ThT fluorescence of Aβ43 fibrillar forms in presence of foldamer (seeded)” value is listed as “higher ThT fluorescence signal”. Moreover, the “Extent of seeded Aβ42 fibrillization at 4-fold molar excess of foldamer” value on Aβ42 [3] (Aβ42 5 μM plus seed 0.1 μM monomer, foldamer 20 μM) is given as “very limited”. Also, on Aβ42 [3] (Aβ42 5 μM plus seed 0.1 μM monomer, foldamer 5, 10 or 20 μM, 0–2 h, 25°C), the “Inhibition of seeded Aβ42 fibrillization” value is on record as “only inhibited seeded Aβ42 fibrillization when present at a 4-fold molar excess over Aβ42”. For the same substance, the “Inhibition of seeded Aβ42 fibrillization, different assembly conditions” value on Aβ42 [3] (Aβ prepared without DMSO, PBE pH 8, Aβ42 5 μM plus seed 0.1 μM monomer, foldamer 20 μM, 16 h) is reported as “inhibited”. Besides, the “Inhibition of spontaneous Aβ42 fibrillization” value on Aβ42 [4] (Aβ42 5 μM, foldamer 10 μM, 8 h, agitation, ThT fluorescence (EM 4 h)) is “strong inhibitors; also recorded: potent inhibitors”. The “Inhibition of spontaneous Aβ42 fibrillization, different assembly conditions” value at Aβ42 [4] (Aβ prepared without DMSO, PBE pH 8, Aβ42 5 μM, foldamer 20 μM, 16 h, ThT) is on record as “inhibited”. In addition, on Aβ43 [5] (compared with Aβ43 alone), the “ThT fluorescence of Aβ43 fibrils formed in presence of foldamer (spontaneous)” value is “higher ThT fluorescence”. Also, at Aβ43 [5] (foldamer 5, 10 or 20 μM, 0–8 h, 25°C, ThT, EM 10 μM 4 h), the “Inhibition of spontaneous Aβ43 fibrillization” value was “did not block spontaneous Aβ43 fibrillization”. Besides, the “Disassembly of Aβ42 fibrils” value on Aβ42 fibrils was “did not disassemble Aβ42 fibrils”. In addition, on Aβ42 oligomers (0.5 h (end of lag phase)), the “Effect on A11-reactive Aβ42 conformers after 0.5 h” value is listed as “had no effect”. Further, the “Effect on A11-reactive Aβ42 conformers after 4 h” value on Aβ42 oligomers (setting [7]) is recorded as “remained at higher levels”. Further, in assay [6] (Aβ43 5 μM assembled with foldamer 20 μM for 0.5 h), the “Effect on toxicity of Aβ43 conformers after 0.5 h of assembly” value is “neither Sal-(Lys-Sal)3-CONH2 nor Ac-Sal-(Lys-Sal)3-CONH2 affected the toxicity”. The “Effect on toxicity of Aβ43 conformers after 4 h of assembly” value in [6] (Aβ43 5 μM assembled with foldamer 20 μM for 4 h) was “neither Sal-(Lys-Sal)3-CONH2 nor Ac-Sal-(Lys-Sal)3-CONH2 affected the toxicity”. At Aβ43 oligomers (0.5 h (end of lag phase)), the “Effect on A11-reactive Aβ43 conformers after 0.5 h” value is listed as “had no effect”. Besides, the “Effect on A11-reactive Aβ43 conformers after 4 h” value on Aβ43 oligomers (setting [7]) was “declined more extensively”.
